Series [1] deals with Saccharomyces cerevisiae. The series can be described thus: FISP disc diffusion assay. In kind it is cell-based. The arrangement: key to zone quality qualifier: F: clear zone, fuzzy edges; S: slightly hazy zone (some growth observed throughout zone); H: hazy zone (considerable growth observed throughout zone); V: very hazy zone (zone of inhibition is barely discernable); R: zone displays a ring of resistant growth; no qualifier: clear zone throughout, sharp edges. The following applies: 250 μg/ml in CH2Cl2. The source says: (§1) The FISP assay employs disc diffusion susceptibility testing methods to generate a spectrum of activity against a panel of representative yeasts, filamentous fungi and bacteria.
(§2) The yeasts employed in the assay are Saccharomyces cerevisiae, Candida albicans, Candida tropicalis, Candida rugosa, Brettanomyces bruxellensis, Torulospora hansenii, Candida guilliermondi, Candida pseudotropicalis, Torulopsis glabrata, Cryptococcus albidus, Cryptococcus laurentii and Kluyveromyces fragilis.
(§3) For carrying out the assay, seeded assay plates are prepared in the following manner according to the type of assay strain.
(§4) Inocula for yeasts and bacterial strains are prepared from overnight broth cultures then diluted into potato dextrose agar to a final concentration of either 40 percent or 70 percent transmission at 660 nm.
(§5) For three strains of Candida albicans and one strain of Saccharomyces cerevisiae, sterile saline is employed in place of potato dextrose broth.
(§6) Assay plates for the yeasts and filamentous fungi are prepared by diluting the inoculum into appropriate molten agar medium, cooled to 45° C. to obtain a final concentration of 4 percent.
(§7) The seeded agar media thus prepared are dispensed into petri dishes for assays (11 ml per dish).
(§8) The samples to be tested for production of antifungal agent are applied to 6.2 mm filter paper discs (25 μl/disc) and air dried at 24° C. When the sample to be tested is crude broth, it may be centrifuged prior to application. The discs bearing the material to be tested are then applied employing sterile conditions to the seeded assay plates. The assay plates are then incubated at either 28° C. or 37° C. for 24 hours. In one of the assays for Bacillus subtilis, the sample is applied to a disc previously impregnated with 4M potassium chloride at 25 μl/disc and then air dried.
(§9) Following incubation, the inhibition zones are measured and recorded. The measurements are made from the extreme edge where growth differs from the background zone. The zones are noted as to appearance as fuzzy edge and clear center, hazy throughout, slightly hazy, very hazy or ringed.
(§10) FISP data is reported as the diameter (in mm.) of the zone of inhibition of growth in agar diffusion assays. The zone is determined by measuring growth that differs from the background lawn. A qualifier is also added to describe the zone quality as listed below: no qualifier: clear zone throughout, sharp edges
Background: In agar diffusion tests the substance spreads into inoculated agar from a disc or well.

The subject of series [2] is Candida albicans. Nature of the series: FISP disc diffusion assay. The format is cell-based. Details: key to zone quality qualifier: F: clear zone, fuzzy edges; S: slightly hazy zone (some growth observed throughout zone); H: hazy zone (considerable growth observed throughout zone); V: very hazy zone (zone of inhibition is barely discernable); R: zone displays a ring of resistant growth; no qualifier: clear zone throughout, sharp edges. As to conditions: 250 μg/ml in CH2Cl2.
Source text: as §1, §2, §3, §4, §5, §6, §7, §8, §9, §10

A further series relates to Candida tropicalis. Nature of the series: Microdilution broth assay. As to conditions: strain MY 1012, 35° C., 24 to 48 hours, read-out: MIC (minimum inhibitory concentration). In kind it is cell-based. As for the experimental part:
(§11) The broad spectrum antifungal activity of the present compounds was further determined by broth dilution methods. The compounds are particularly active towards filamentous fungi and yeasts including Candida albicans and Crypt. neoformans. The sensitivity of filamentous fungi and yeasts was determined using inhibitor dilution assays in microtiter format. A standardized spore suspension for testing the filamentous fungi was prepared by inoculating sterile distilled water with spores such that 1.5-7.5×10^3 colony forming units were added per well. The microtiter wells were filled with 75 μl of yeast nitrogen base containing 1% Dextrose medium (YNB/D) containing compound. Fifty μl of inoculated YNB/D medium was then added to the wells.
(§12) The sensitivity of yeasts was determined by inoculating sterile distilled water with aliquots of a 4-hour yeast culture grown in Yeast Morphology (YM) media at 35° C. and diluting in YNB/D to yield a final concentration of 1.5-7.5×10^3 colony forming units/well. Seventy-five μl of inoculated media was added per well. To test the sensitivity of yeast, compound was solubilized in 10 percent aqueous DMSO at 2.56 mg/ml. The compound was diluted serially in YNB/D from 128 to 0.06 μg/ml. The wells were filled with 75 μl of drug containing media. […] Representative of the antifungal activity are the minimum inhibitory concentration and minimum fungicidal concentration data shown below in Table II: […]
(In general: Broth dilution looks for growth in wells or tubes with falling amounts of substance.)

For a further series, the system named is Candida guilliermondii. Nature of the series: Microdilution broth assay. The format is cell-based. The following applies: Meyerozyma guilliermondii; strain MY 1019; 35° C., 24 to 48 hours; read-out: MIC (minimum inhibitory concentration). As for the experimental part:
as §11, §12

The subject of a further series is Cryptococcus neoformans. The series can be described thus: Microdilution broth assay. In kind it is cell-based. As to conditions: strain MY 1051, 35° C., 24 to 48 hours, read-out: MIC (minimum inhibitory concentration). As for the experimental part:
as §11, §12

The test system of a further series is T. mentagrophytes. Nature of the series: Microdilution broth assay. As to conditions: Trichophyton mentagrophytes; strain MF 4864; 35° C., 48-72 hours; read-out: MIC (minimum inhibitory concentration). The format is cell-based. As for the experimental part: as §11, §12
The next series has as its system Aspergillus fumigatus. Nature of the series: Microdilution broth assay. As to conditions: strain MF 4839, 35° C., 48-72 hours, read-out: MIC (minimum inhibitory concentration). The format is cell-based. As for the experimental part:
as §11, §12

The test system of a further series is Candida parapsilosis. The series can be described thus: Microdilution broth assay. In kind it is cell-based. The following applies: Lodderomyces parapsilosis; strain MY 1010; 35° C., 24 to 48 hours; read-out: MIC (minimum inhibitory concentration). As for the experimental part:
as §11, §12

The test system of series [3] is Saccharomyces cerevisiae. Nature of the series: Microdilution broth assay. As to conditions: strain MY 1976, 35° C., 24 to 48 hours, read-out: MIC (minimum inhibitory concentration). In kind it is cell-based. As for the experimental part: as §11, §12
For series [4], the system named is Candida albicans. The series can be described thus: Microdilution broth assay. The following applies: 35° C., 24 to 48 hours. In kind it is cell-based. As for the experimental part:
as §11, §12

A further series can be described thus: Light stability. The format is physicochemical.
For a further series, the system named is Bacillus subtilis. The series can be described thus: FISP disc diffusion assay. The format is cell-based. As to conditions: 250 μg/ml in CH2Cl2. As for the experimental part:
as §1
The bacteria employed in the assay are Streptomyces sp., Acholeplasma laidlawii and Bacillus subtilis.
as §3, §4
Seeded agar for Bacillus subtilis are prepared from a commercially available spore suspension which is diluted directly into molten agar (45° C.) to obtain a final concentration of 0.1 percent.
as §7
The samples to be tested for production of antifungal agent are applied to 6.2 mm filter paper discs (25 μl/disc) and air dried at 24° C. When the sample to be tested is crude broth, it may be centrifuged prior to application. […]
Following incubation, the inhibition zones are measured and recorded. […]
FISP data is reported as the diameter (in mm.) of the zone of inhibition of growth in agar diffusion assays. The zone is determined by measuring growth that differs from the background lawn. […]

In a further series the test system is Kluyveromyces fragilis. Nature of the series: FISP disc diffusion assay. In kind it is cell-based. Details: key: F: clear zone, fuzzy edges; S: slightly hazy zone (some growth observed throughout zone); H: hazy zone (considerable growth observed throughout zone); V: very hazy zone (zone of inhibition is barely discernable); R: zone displays a ring of resistant growth; no qualifier: clear zone throughout, sharp edges. As to conditions: 250 μg/ml in CH2Cl2.
Source text: as §1, §2, §3, §4, §6, §7, §8, §9, §10

From patent US5244795A, “Processes for preparing cholesterol lowering compounds” (Merck & Co., Inc., priority 1992, dated 1993) come the findings set out here.

SMILES strings stand for the structures. Converted amounts (≈) assume the structure as drawn.

A word on the zone of inhibition: it is the extent of the growth-free halo in a diffusion test. With `CC(/C=C/C=C(\C)C(O)C(C)C(=O)O[C@H]1C[C@H](C)C=C2C=C[C@@]3(C)O[C@@H](O)CC(=O)[C@]3(C)[C@H]21)=C\C=C\C(=O)O` (stereo partly shown) [Compound A], the zone quality qualifier entry with Saccharomyces cerevisiae [1] was “H”; in the series on Saccharomyces cerevisiae [1] (YNB) it was “H”; in the series with Candida albicans [2], “S”; in the series with Candida albicans [2] (YNB), “V”; in the series with Candida albicans [2] (YNB/GLU) it was “H”; with Candida albicans [2] (YNB/NAG), “H”. Moreover, in the series with Kluyveromyces fragilis, the zone quality qualifier result is reported as “V”. The zone of inhibition at 250 µg/mL with Saccharomyces cerevisiae [1] (Saccharomyces cerevisiae, read-out: diameter of the zone of inhibition of growth) amounted to 0 mm; in the series with Candida albicans [2] (Candida albicans, read-out: diameter of the zone of inhibition of growth), 0 mm; with Bacillus subtilis (Bacillus subtilis, read-out: diameter of the zone of inhibition of growth), 0 mm. In addition, the MIC in the series with Candida tropicalis is ≤ 0.06 µg/mL; in the series on Candida guilliermondii, > 128 µg/mL; in the series on Cryptococcus neoformans, 32 µg/mL (≈ 59.2 µM); in the series with T. mentagrophytes, 32 µg/mL (≈ 59.2 µM); in the series with Aspergillus fumigatus it was 64 µg/mL (≈ 118 µM); in the series on Candida parapsilosis, 0.25 µg/mL (≈ 0.462 µM). The MIC with Saccharomyces cerevisiae [3] was > 128 µg/mL; in the series with Candida albicans [4] (Candida albicans, strain MY 1055, read-out: MIC (minimum inhibitory concentration)) it was ≤ 0.06 µg/mL. Further, in the series on Candida albicans [4] (strain MY 1028), the “MIC (minimum inhibitory concentration)” value is ≤ 0.06 µg/mL. The stability result in the series “Light stability” (isolated and worked with in the absence of light) was “stable when isolated and worked with in the absence of light”. Further, the light sensitivity result in “Light stability” (light) is recorded as “light sensitive”. Also, the “diameter of the zone of inhibition of growth” value in the series on Bacillus subtilis (KCl (disc impregnated with 4M potassium chloride)) came out at 0 mm.
